Patent USRE47689E1, “Compounds for treating spinal muscular atrophy” (PTC Therapeutics, Inc., priority 2011, dated 2019)

How the values were obtained:
[1] = system: SMN2 minigene (full length SMN2 minigene mRNA containing SMN2 exon 7); experiment: SMN2 minigene mRNA splicing RT-qPCR assay in cultured cells; format: cell-based, human; conditions: for exon 7 inclusion / SMN2mini FL mRNA relative to vehicle control: HEK293H cells with SMN2-A minigene; for exon 7 inclusion: relative to untreated cells; for SMN2mini FL mRNA relative to vehicle control: rising concentrations, 24 hr; for EC (1.5-fold): Homo sapiens, HEK293-H, HEK293H cells stably transfected with SMN2-A minigene, 24 hours, 7-point concentration curve, 1.5-fold relative to vehicle-treated cells, read-out: EC1.5x for production of full length SMN2 mRNA
Procedure, shortened: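 Read-out: full-length (exon 7-included) SMN2 minigene mRNA by multiplex RT-qPCR with GAPDH, efficiency-corrected (1+E)^−Ct, GAPDH-normalized and divided by vehicle. Stably transfected HEK293H cells, 24 h compound exposure, duplicates per concentration. Value is EC1.5x, reported as star ranges.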

[2] = system: gems (Smn-dependent nuclear speckles); experiment: Gems count (Smn-dependent nuclear speckle count) assay; format: cell-based, human; conditions: SMA Type 1 patient fibroblasts; 48 hours; fluorescence microscopy
From the text: The level of Smn protein directly correlates with the amount of nuclear foci, also known as gems, produced upon staining the cell with a fluorescently labeled anti-Smn antibody (Liu and Dreyfuss, EMBO J., 1996, 15:3555). Gems are multi-protein complexes whose formation is nucleated by the Smn protein and the gems count assay is used to evaluate the level of Smn protein in the cell. As described herein, the gems count assay is used to quantify the level of Smn protein in SMA patient fibroblast cells treated with a test compound.
Protocol: Cells are thawed and incubated in DMEM-10% FBS for 72 hours, then trypsinized, counted and resuspended to 100,000 cells/mL in DMEM-10% FBS. 2 mL of the cell suspension is plated in a 6-well cell culture plate with a sterile cover slip and incubated for 3 to 5 hours. Test compounds are serially diluted 3.16-fold in 100% DMSO to generate a 7-point dilution curve. […]
Cell culture medium is aspirated from the wells containing cover slips and gently washed three times with cold PBS. […] The number of gems is counted per ≥150 nuclei and % activation is calculated using DMSO and 10 nM bortezomib as controls. For each test compound, the cells are examined at all wavelengths to identify test compounds with inherent fluorescence.

Row | Compound | exon 7 inclusion [1] | SMN2mini FL mRNA relative to vehicle control [1] | EC (1.5-fold) [1] | number of gems relative to DMSO [2]
1 | CC(C)NCCc1ccc2cc(-c3nc4c(Cl)cccc4s3)c(=O)oc2c1 [Cpd 35, 3-(4-chloro-1,3-benzothiazol-2-yl)-7-[2-(propan-2-ylamino)ethyl]-2H-chromen-2-one] | fully restored exon 7 inclusion relative to untreated cells | increased SMN2mini FL mRNA at low concentrations | 0.3 to 1 µM | progressively more gems relative to cells treated with DMSO
2 | CCN1CCN(c2ccc3cc(-c4cn5cc(C)nc(C)c5n4)c(=O)oc3c2)C[C@@H]1C [Cpd 626, 3-(6,8-dimethylimidazo[1,2-a]pyrazin-2-yl)-7-[(3S)-4-ethyl-3-methylpiperazin-1-yl]-2H-chromen-2-one] | fully restored exon 7 inclusion relative to untreated cells | increased SMN2mini FL mRNA at low concentrations | < 0.1 µM | progressively more gems relative to cells treated with DMSO
